Data from patent US8633166B2, “Methicillin-resistant Staphylococcus aureus active metabolites” (priority 2009, dated 2014).

Tested on: Methicillin-resistant Staphylococcus aureus
Assay: In vivo MRSA assay, thigh infection in a murine model
Set-up: species or system Mice (CD-1)
Conditions: for number of MRSA recovered from muscle tissue: 48 hours, neutropenic mice
Description: The in vivo antimicrobial activity for the isolated glycosides is represented in FIGS. 2A and 2B. Mice (CD-1) were purchased from Harlan Inc. and acclimatized up to 5 days before use. Food and water were available ad libitum throughout the study. They were rendered neutropenic by two injections of cyclophosphamide (100 mg/kg) given intraperitoneally, one and four days before infection. A volume of 50 uL suspension of Methicillin-resistant Staphylococcus aureus (1.5×10^6 live organisms) was injected intramuscularly (1M) into each of the two rear thighs. Each thigh was considered as an individual data point (total of 4 data points for each treatment). These mice were randomly distributed into the control or treatment groups (n=2/group).
Treatment with the test compound (1) was initiated via the intraperitoneal route 2 hrs after thigh inoculation. Control animals were concurrently administered saline (mock treatment) or vancomycin in the same volume as those receiving compound (1). All animals were sacrificed after 48 hours by CO2 inhalation. Immediately following sacrifice, thigh tissue was collected from the animals, weighed, and homogenized in 5.0 mL of saline. Thigh muscle homogenate was then processed for microbiological assay to determine the number of MRSA cfu per gram of muscle tissue.

C[C@@H]1O[C@@H](Oc2c(-c3ccc(O)cc3)oc3cc(O)cc(O)c3c2=O)[C@H](OC(=O)/C=C/c2ccc(O)cc2)[C@H](OC(=O)/C=C/c2ccc(O)cc2)[C@H]1O [Compound 1, kaempferol 3-O-α-L-(2″,3″-di-E-p-coumaroyl)rhamnoside]
reduction compared to vehicle control (3 mg/kg): 67% | number of MRSA recovered from muscle tissue (3 mg/kg intraperitoneal): 2.6×10^7 cfu/g | reduction compared to vehicle control (15 mg/kg): 78% | number of MRSA recovered from muscle tissue (15 mg/kg intraperitoneal): 1.8×10^7 cfu/g
